According to article PMC9501369, “Evaluation of Novel Inhibitors of Tryptophan Dioxygenases for Enzyme and Species Selectivity Using Engineered Tumour Cell Lines Expressing Either Murine or Human IDO1 or TDO2” (Pharmaceuticals, 2022):
Read-outs that look alike come from different tables or passages of the source.

What was measured:
human IDO1 [1] = molecular target: T1, human IDO1 (Homo sapiens, UniProt P14902); assay: LLTC-hIDO1 cell-based assay (kynurenine in supernatant); design: host or cells: murine LLTC Lewis lung carcinoma cells
T1 sequence (P14902 whole entry): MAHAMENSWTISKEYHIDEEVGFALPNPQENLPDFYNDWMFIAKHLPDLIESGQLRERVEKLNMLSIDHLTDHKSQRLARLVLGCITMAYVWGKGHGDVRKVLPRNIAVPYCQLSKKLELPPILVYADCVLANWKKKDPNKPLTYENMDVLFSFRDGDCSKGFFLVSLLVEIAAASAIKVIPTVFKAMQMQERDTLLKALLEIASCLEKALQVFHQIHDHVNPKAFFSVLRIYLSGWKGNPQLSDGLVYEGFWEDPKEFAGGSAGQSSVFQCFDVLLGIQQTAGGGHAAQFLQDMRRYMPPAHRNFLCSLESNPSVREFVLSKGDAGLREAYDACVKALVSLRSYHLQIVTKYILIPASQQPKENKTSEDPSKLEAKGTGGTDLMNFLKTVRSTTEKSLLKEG
Description: (§1) Transfected LLTC cells constitutively expressing human IDO1 (LLTC-hIDO1) were established as previously described, by transfecting wild-type LLTC cells with pAd/CMV/V5-DEST with cDNA for human IDO1 (Invitrogen, Carlsbad, CA, USA). LLTC-mIDO1 cells that constitutive express murine IDO1 were established by transfection of wild-type LLTC with cDNA for murine IDO1 (courtesy of Dr Benoit van den Eynde). GL261 cells were similarly transfected to produce a line constitutively expressing human IDO1 (GL261-hIDO1), and a GL261-hTDO2 line expressing the human TDO2 gene (Source BioScience, Nottingham, England). Stable transfectants were maintained in αMEM with 10% FCS and selection antibiotics (2 µM puromycin for lines transfected with human dioxygenase genes, or 5 µg/mL blastocidin for LLTC-mIDO1 cells).
(§2) For the cell-based assays with engineered TDO2-expressing lines (10^4 cells per well), the α-MEM culture media was additionally supplemented with […] L-tryptophan. In brief, cells were cultured 24 h with the test compounds, and then supernatants from each well were transferred into fresh, flat-bottomed 96-well plates, mixed with trichloroacetic acid (10% final concentration) and incubated for 20 min, at 60 °C. Plates were centrifuged and supernatants transferred and mixed 1:1 with 4-(dimethylamino)benzaldehyde and the absorbance read at 480 nm as previously described. The inhibition of cellular enzyme activity at each drug concentration was calculated as a percent of control wells with no added drug.

murine IDO1 = molecular target: T2, murine IDO1 (Mus musculus, UniProt P28776); assay: LLTC-mIDO1 cell-based assay (kynurenine in supernatant)
T2 construct: expressed in transfected cells; host or cells: murine LLTC Lewis lung carcinoma cells
T2 sequence (P28776 whole entry): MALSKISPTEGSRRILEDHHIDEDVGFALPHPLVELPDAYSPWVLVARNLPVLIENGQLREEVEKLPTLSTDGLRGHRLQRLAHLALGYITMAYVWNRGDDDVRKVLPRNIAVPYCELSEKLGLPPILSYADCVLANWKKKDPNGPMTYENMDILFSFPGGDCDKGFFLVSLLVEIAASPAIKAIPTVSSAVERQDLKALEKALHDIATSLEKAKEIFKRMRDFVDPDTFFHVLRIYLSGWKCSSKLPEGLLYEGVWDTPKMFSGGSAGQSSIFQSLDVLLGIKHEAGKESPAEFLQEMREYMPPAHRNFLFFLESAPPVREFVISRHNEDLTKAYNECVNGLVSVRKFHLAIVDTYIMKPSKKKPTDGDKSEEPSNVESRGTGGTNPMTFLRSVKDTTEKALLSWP
Description: as §1, §2

human TDO2 = molecular target: T3, human TDO2 (Homo sapiens, UniProt P48775); assay: GL261-hTDO2 cell-based assay (kynurenine in supernatant); settings: Table 2; for IC50 Ratio hTDO2/hIDO1: GL261-hTDO2 IC50 / LLTC-hIDO1 IC50, ^−1 marks inverse ratio; for IC50: GL261-hTDO2 cells
T3 construct: host or cells: murine GL261 glioma cells
T3 sequence (P48775 whole entry): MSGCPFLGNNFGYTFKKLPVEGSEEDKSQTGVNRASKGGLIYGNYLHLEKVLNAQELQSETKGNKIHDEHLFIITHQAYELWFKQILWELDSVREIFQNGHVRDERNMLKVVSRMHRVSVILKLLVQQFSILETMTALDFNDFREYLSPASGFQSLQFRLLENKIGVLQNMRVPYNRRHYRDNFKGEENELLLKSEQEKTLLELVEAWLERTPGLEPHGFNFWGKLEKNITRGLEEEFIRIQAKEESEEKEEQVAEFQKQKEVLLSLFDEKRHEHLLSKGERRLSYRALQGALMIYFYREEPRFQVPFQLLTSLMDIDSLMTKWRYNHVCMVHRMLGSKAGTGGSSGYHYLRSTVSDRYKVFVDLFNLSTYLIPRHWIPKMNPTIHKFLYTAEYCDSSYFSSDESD
Method: Each compound was tested in cell-based assays using LLTC-hIDO1 and GL261-hTDO2, respectively, for their potency at inhibiting human IDO1 and human TDO2.
as §1, §2

GL261-hIDO1 tumours [2] = assay: K:T ratios in plasma and tumour of mice with GL261-hIDO1 tumours after single ip dose; format: in vivo, C57Bl/6 mice; settings: single ip 150 mg/kg
Method: C57Bl/6 mice were inoculated subcutaneously with 10^6 GL261-WT or GL261-hIDO1 cells in […] PBS into the left flank. […] In brief, 100µL of each plasma sample was mixed with 100µL of potassium phosphate buffer (0.05 M, pH 6) containing 100µM of the internal standard, 3-Nitro-L-Tyrosine (Sigma-Aldred, St Louis, MO, USA). Twenty-five µL of 2 mol/L trichloroacetic acid (Merck) was added to precipitate the proteins, and the samples were then vortexed and centrifuged at 12,000× g for 6 min, at room temperature. Standard calibration curves made from serial dilution of tryptophan (Sigma) and L-kynurenine (Sigma) were prepared with the same treatment as the samples. All supernatants collected after centrifugation were transferred into micro sampling vials and analysed for kynurenine and tryptophan as previously described by HPLC (HP Agilent 1200, Agilent Technologies, Walbronn, Germany). Kynurenine and tryptophan concentrations in samples were calculated from the standard calibration curves and the kynurenine to tryptophan ratio (K:T) was calculated by dividing the concentration of kynurenine by the tryptophan concentration.

human IDO1 [3] = molecular target: T1, human IDO1; assay: cell-free recombinant hIDO1 enzymatic assay; format: biochemical; settings: Figure 4, read-out: IC50 (enzyme assay)
GL261-hIDO1 tumours [4] = assay: Growth of subcutaneous GL261-hIDO1 tumours under daily ip treatment; format: in vivo; settings: daily ip 75, 100 and 150 mg/kg, C57Bl/6 mice
Method: C57Bl/6 mice bred at the Vernon Jansen Unit, University of Auckland were used as the hosts for the growth of GL261 and LLTC tumours. Unless stated, first-generation tumours, initiated by injecting 10^6 cells in 100 µL medium subcutaneously into the left flank of each mouse were used for experiments. […] Tumours were measured thrice weekly, and tumour volumes were calculated as 0.52a^2b, where a and b are the minor and major axes of the tumour.
C57Bl/6 mice were inoculated subcutaneously into the left flank with 10^6 GL261-hIDO1 cells and were randomised into treatment groups 6 days after inoculation when the tumours were approximately 3 × 3 mm in size. Mice with tumours were treated daily with ip injection of the inhibitor at a tolerated non-toxic dose, dissolved to the required concentration in 50 µL DMSO per mouse. Control groups received only DMSO (≤50 µL).

in vivo = settings: C57Bl/6, mouse, ip
[5] = Table 1, LLTC-hIDO1 cells, 24 h culture with compound, read-out: IC50 (µM) LLTC-hIDO1
[6] = Table 1, LLTC-mIDO1 cells, 24 h culture with compound, read-out: IC50 (µM) LLTC-mIDO1
[7] = mice with 16-day GL261-hIDO1 tumours
[8] = LLTC-hIDO1 cell assay vs recombinant hIDO1 enzymatic assay
[9] = Table 2, LLTC-hIDO1 cells, read-out: IC50 (µM) LLTC-hIDO1

IC50 (human IDO1 [1]; [5])	IC50 (murine IDO1; [6])	IC50 (human TDO2)	IC50 (human IDO1 [1]; [9])	SMILES	also measured
2.56 µM	22.5 µM	–	–	N#Cc1c(NC(=O)c2ccccc2)sc(N)c1-c1cccs1 [Compound W-0003891]	–
17.9 µM	11.3 µM	–	–	Cc1ccc(N/N=C2/CCCNC2=O)cc1 [Compound W-0011320]	–
3.19 µM	1.32 µM	–	–	O=C(O)c1coc2c1C(=NNc1ccccc1)CCC2 [Compound W-0011387]	–
20.1 µM	20 µM	–	–	NC(=O)SCC(=O)Nc1ccc(F)cc1 [Compound W-0013201]	–
–	–	–	–	c1ccc2c(c1)Nc1ccccc1O2 [Compound W-0020227]	IC50 (human IDO1 [1]): 1.52 µM; IC50 (murine IDO1): 3.1 µM
11.6 µM	50.5 µM	–	–	CCn1cc(-c2c(N)sc(NC(=O)c3ccccc3)c2C#N)c(C)n1 [Compound W-0020339]	–
10.1 µM	13.1 µM	–	–	C/C(=N\Nc1ccc(F)cc1F)c1cccs1 [Compound W-0079326]	–
17.1 µM	10.3 µM	–	–	C/C(=N\Nc1ccc(C)c(Cl)c1)c1ccncc1 [Compound W-0079341]	–
41.2 µM	25 µM	–	–	C/C(=N\Nc1ccc(F)cc1F)c1cc2ccccc2o1 [Compound W-0079399]	–
20.8 µM	12.9 µM	–	–	C/C(=N\Nc1ccc(F)cc1F)c1ccc(N2CCOCC2)cc1 [Compound W-0079400]	–
3.39 µM	1.87 µM	–	–	CC(C)N1CCC(=NNc2ccc(Cl)c(Cl)c2)CC1 [Compound W-0079407]	–
6.74 µM	16 µM	–	–	COc1cc(/C(C)=N/Nc2ccc(Cl)c(Cl)c2)cc(OC)c1OC [Compound W-0079409]	–
5.33 µM	13.3 µM	–	–	CC1=C/C(=N\Nc2ccccc2Cl)CC1 [Compound W-0079433]	–
3.45 µM	3.03 µM	–	–	Fc1ccc(N/N=C/c2sc(N3CCOCC3)nc2-c2ccccc2)cc1 [Compound W-0079497]	–
31.6 µM	70.7 µM	–	–	Cc1ccc(C)c(C2=Nn3c(COc4ccccc4F)nnc3SC2C)c1 (stereo not drawn) [Compound W-0080549]	–
6.04 µM	5.83 µM	–	–	Fc1ccc(N/N=C2/CCCc3ccccc32)c(F)c1 [Compound W-0125931]	–
–	–	6.08 µM	–	Nc1nonc1/C(=N\O)Nc1ccc(F)c(Cl)c1 [INCB14934, reference compound]	titration curve in the cell-assay compared to that in the enzymatic assay (human IDO1 [1]; [8]): very similar; IC50 (murine IDO1): 0.12 µM
–	–	0.08 µM	0.66 µM	Nc1noc2ncc(Br)cc12 [SN36458]	–
–	–	14.1 µM	0.3 µM	Cc1nc2onc(N)c2c(C)c1Br [SN36494]	IC50 Ratio hTDO2/hIDO1 (human TDO2): 47
–	–	0.11 µM	0.7 µM	Nc1noc2ncc(Cl)cc12 [SN36499]	–
–	–	1.58 µM	2.11 µM	Nc1noc2nc3ccccc3cc12 [SN36500]	–
–	–	1.07 µM	8.67 µM	Nc1noc2ncncc12 [SN36704]	–
–	–	37 µM	4.38 µM	Nc1noc2nc(-c3ccccc3)ccc12 [SN36796]	IC50 Ratio hTDO2/hIDO1 (human TDO2): 8
–	–	0.11 µM	0.64 µM	Nc1noc2ncc(I)cc12 [SN36896]	–
–	–	10.7 µM	8.88 µM	COc1ccc2c(N)noc2n1 [SN37057]	IC50 Ratio hTDO2/hIDO1 (human TDO2): 1.2
–	–	1.81 µM	1.14 µM	Nc1noc2nc(C(F)(F)F)ccc12 [SN37159]	IC50 Ratio hTDO2/hIDO1 (human TDO2): 1.6
–	–	4.14 µM	0.06 µM	Cc1cc(Cl)nc2onc(N)c12 [SN37313]	IC50 Ratio hTDO2/hIDO1 (human TDO2): 67
–	–	0.68 µM	0.92 µM	Nc1noc2ncc([N+](=O)[O-])cc12 [SN37318]	–
–	–	175 µM	2.06 µM	Cc1nc2onc(NC(=O)Nc3ccccc3)c2c(C)c1Cl [SN37705]	IC50 Ratio hTDO2/hIDO1 (human TDO2): 85

SMILES	IC50 (human IDO1 [1]; [5])	IC50 (murine IDO1; [6])	IC50 (human TDO2)	IC50 (human IDO1 [1]; [9])	also measured
Cc1nc2onc(N)c2c(C)c1Cl [Compound W-0019482]	0.08 µM	0.01 µM	15.2 µM	0.09 µM	IC50 Ratio hTDO2/hIDO1 (human TDO2): 169; K:T ratio in the tumour, returned to % of that in mice without treatment (GL261-hIDO1 tumours [2]; GL261-hIDO1 tumours, time point not given): approximately 50%; K:T ratio in plasma (GL261-hIDO1 tumours [2]; [7]): reduced within an hour; K:T ratio in tumour (GL261-hIDO1 tumours [2]; [7]): reduced within an hour; IC50 (human IDO1 [1]; Figure 4, LLTC-hIDO1 cell-based assay, read-out: IC50 (cell assay)): 0.0661 µM; fold more potent in the cell-based assay compared to activity against the enzyme (human IDO1 [1]; [8]): 30 fold; IC50 (human IDO1 [3]): 1.85 µM; growth of subcutaneous GL261-hIDO1 tumours (GL261-hIDO1 tumours [4]): delayed the growth; MTD (in vivo): 150 mg/kg
